From ChEMBL document CHEMBL1137798, “Evaluation of natural products as inhibitors of human immunodeficiency virus type 1 (HIV-1) reverse transcriptase” (J Nat Prod, 1991)
Where a name gives a salt, the structure may show the parent alone.

What was measured:
[1] = target: T1, Human immunodeficiency virus type 1 reverse transcriptase (Human immunodeficiency virus 1, UniProt Q72547)
[2] = target: Human immunodeficiency virus type 1 reverse transcriptase (Human immunodeficiency virus 1) (UniProt Q72547); test: Inhibition of HIV1 RT at 200 ug/ml
[3] = target: T1, Human immunodeficiency virus type 1 reverse transcriptase; test: Inhibition of HIV1 RT using poly A oligo(dT) template primer

Row | Compound | IC50 ([1]; read-out: IC50 (converted)) | inhibition [2] | IC50 [3] | IC50 [1]
1 | COc1cc2c(ccc3c4cc(OC)c(OC)cc4cnc23)cc1O | > 596 µM | < 10% |  | 
2 | CC[C@H]1CN2CCc3cc(OC)c(OC)cc3[C@@H]2C[C@@H]1C[C@H]1NCCc2cc(O)c(OC)cc21 [CEPHAELINE DIHYDROCHLORIDE] | > 371 µM | 20% |  | 
3 | C/C=C1/C[N+]2(C)CC[C@@]34c5ccccc5N[C@]32CCC1C4(CO)C(=O)OC (stereo not given in full) [ECHITAMINE CHLORIDE] | > 494 µM | < 10% |  | 
4 | COc1cc2c(ccc3c4cc(OC)c(OC)cc4c[n+](C)c23)cc1O [FAGARONINE] | 46.7 µM |  | 25.9 µM | 
5 | COc1ccc2c(c1O)-c1c(O)c(OC)cc3c1[C@H](C2)[N+](C)(C)CC3 [MAGNOFLORINE CHLORIDE] | > 529 µM | < 10% |  | 
6 | COc1cc2c[n+](C)c3c4cc5c(cc4ccc3c2cc1OC)OCO5 [NITIDINE CHLORIDE] | < 130 µM |  | 128 µM | 
7 | CC[C@H]1CN2CCc3cc(OC)c(OC)cc3[C@@H]2C[C@@H]1CC1=NCCc2cc(O)c(OC)cc21 [PSYCHOTRINE] | > 430 µM | 20% |  | 
8 | COc1ccc2c(c1OC)CN1CCc3cc4c(cc3C1C2)OCO4 (stereo not given) [TETRAHYDROBERBERINE] | > 589 µM | 25% |  | 
9 | COc1cc2c(cc1OC)[C@@H]1Cc3ccc(OC)c(O)c3CN1CC2 [TETRAHYDROPALMATRUBINE] | > 586 µM | 25% |  | 
10 | C[C@H]1CC[C@]2(NC1)O[C@H]1C[C@H]3[C@@H]4CC[C@H]5C[C@@H](O[C@@H]6O[C@H](CO)[C@H](O[C@@H]7O[C@H](CO)[C@@H](O)[C@H](O[C@@H]8OC[C@@H](O)[C@H](O)[C@H]8O)[C@H]7O[C@@H]7O[C@H](CO)[C@@H](O)[C@H](O)[C@H]7O)[C@H](O)[C@H]6O)CC[C@]5(C)[C@H]4CC[C@]3(C)[C@H]1[C@@H]2C [TOMATINE] | > 193 µM |  |  | 
11 | O[C@H]1[C@H]2[C@H](O)CCCN2C[C@H]1O [TRIDOLGOSIR] | > 1150 µM |  |  | 
12 | C[n+]1cccc(C(=O)[O-])c1 [TRIGONELLINE HYDROCHLORIDE] | > 1150 µM |  |  | 
13 | CC[C@H]1CN2CCc3cc(OC)c(OC)cc3[C@@H]2C[C@@H]1C[C@H]1NCCc2c1[nH]c1ccc(O)cc21 [TUBULOSINE] | > 420 µM |  |  | 
14 | COc1cc(O)c2c(=O)cc(-c3ccc(O)c(OC)c3)oc2c1 [VELUTIN] | > 636 µM |  |  | 
15 | C/C=C(/C)C(=O)O[C@H]1CC[C@@]2(C)[C@@H]3CC[C@H]4[C@]5(O)C[C@H](O)[C@@]6(O)[C@@H](CN7C[C@@H](C)CC[C@H]7[C@@]6(C)O)[C@]5(O)C[C@]42O[C@]13O [VERATRINE] | > 338 µM |  |  | 
16 | CC[C@]1(O)C[C@@H]2CN(CCc3c([nH]c4ccccc34)[C@@](C(=O)OC)(c3cc4c(cc3OC)N(C)[C@H]3[C@@](O)(C(=O)OC)[C@H](OC(C)=O)[C@]5(CC)C=CCN6CC[C@]43[C@@H]65)C2)C1 [VINBLASTINE] | > 247 µM |  |  | 
17 | C/C=C1\CN2[C@H]3C[C@@]45c6ccccc6N(C)[C@@H]4[C@@H]2C[C@@H]1[C@@]3(C(=O)OC)C5O (stereo not given in full) [VINCAMAJINE] | > 546 µM |  |  | 
18 | CC[C@]1(O)C[C@H]2CN(CCc3c([nH]c4ccccc34)[C@@](C(=O)OC)(c3cc4c(cc3OC)N(C=O)[C@H]3[C@@](O)(C(=O)OC)[C@H](OC(C)=O)[C@]5(CC)C=CCN6CC[C@]43[C@@H]65)C2)C1 [VINCRISTINE] | > 242 µM |  |  | 
19 | CC[C@]12CN3CCc4c([nH]c5ccccc45)[C@@](C(=O)OC)(c4cc5c(cc4OC)N(C)[C@H]4[C@@](O)(C(=O)OC)[C@H](OC(C)=O)[C@]6(CC)C=CCN7CC[C@]54[C@@H]76)C[C@@H](C3)[C@H]1O2 [VINLEUROSINE SULFATE] | > 233 µM |  |  | 
20 | CC1(C)CC[C@]2(C)CC[C@]3(C)C(=CC[C@@H]4[C@@]5(C)CC[C@H](O)C(C)(C)[C@@H]5CC[C@]43C)[C@@H]2C1 [beta-AMYRIN] | > 469 µM |  |  | 
21 | RAUWOLFIA SERPENTINA |  |  |  | > 200 µg/mL
